PubChem BioAssay AID256 (DTP/NCI, 2004)
Values joined by “and” are separate entries in the source; they are usually repeats but may differ in a detail not shown here. Identical values can stand only once. Toxic doses and inconclusive results are not listed. Rule for the calls: active = survival T/C of 150% or more; inactive = T/C below 125% in these data.

System: CD2F1 mice, L1210 leukemia ip, survival T/C
Test: NCI In Vivo Anticancer Drug Screen. Data for tumor model L1210 Leukemia (intraperitoneal) in CD2F1 (CDF1) mice
Settings: higher = longer survival
How it was run: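 Tumor-bearing mice (transplanted tumor) were split into treated and vehicle control groups, and the measured endpoint of each treated group was divided by that of its vehicle controls.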

[1] = endpoint: mean survival time, dose: 25.0 mg/kg/injection, schedule: Q01DX009 (ip), vehicle: saline with Tween-80
[2] = endpoint: mean survival time, dose: 50.0 mg/kg/injection, schedule: Q01DX009 (ip), vehicle: saline with Tween-80
[3] = endpoint: mean survival time, dose: 100.0 mg/kg/injection, schedule: Q04DX003 (ip), vehicle: saline
[4] = endpoint: mean survival time, dose: 100.0 mg/kg/injection, schedule: Q04DX003 (ip), vehicle: saline with Tween-80
[5] = endpoint: mean survival time, dose: 200.0 mg/kg/injection, schedule: Q04DX003 (ip), vehicle: saline with Tween-80
[6] = endpoint: mean survival time, dose: 400.0 mg/kg/injection, schedule: Q04DX003 (ip), vehicle: saline with Tween-80
[7] = endpoint: mean survival time, dose: 100.0 mg/kg/injection, schedule: Q01DX009 (ip), vehicle: saline with Tween-80
[8] = endpoint: mean survival time, dose: 200.0 mg/kg/injection, schedule: Q01DX009 (ip), vehicle: saline with Tween-80
[9] = endpoint: mean survival time, dose: 6.25 mg/kg/injection, schedule: Q01DX009 (ip), vehicle: saline with Tween-80

Measured: T/C

NC(N)=NC1CCCC1
inactive: [1] 102 % of control | endpoint: mean survival time, dose: 25.0 mg/kg/injection, schedule: Q04DX003 (ip), vehicle: saline 100 % of control | [2] 100 % of control | endpoint: mean survival time, dose: 50.0 mg/kg/injection, schedule: Q04DX003 (ip), vehicle: saline 91 % of control | [3] 100 % of control

CC12CCC(CC1CO)C2 (configuration not stated)
inactive: [4] 88 % of control | [5] 87 % of control

CC(=O)N1CCC2(CC1)SSC1(CCN(C(C)=O)CC1)S2
inactive: endpoint: mean survival time, dose: 5.0 mg/kg/injection, schedule: Q01DX009 (ip), vehicle: saline with Tween-80 102 % of control | endpoint: mean survival time, dose: 5.0 mg/kg/injection, schedule: Q04DX003 (ip), vehicle: saline with Tween-80 92 % of control | endpoint: mean survival time, dose: 10.0 mg/kg/injection, schedule: Q01DX009 (ip), vehicle: saline with Tween-80 103 % of control | endpoint: mean survival time, dose: 10.0 mg/kg/injection, schedule: Q04DX003 (ip), vehicle: saline with Tween-80 91 % of control | endpoint: mean survival time, dose: 20.0 mg/kg/injection, schedule: Q01DX009 (ip), vehicle: saline with Tween-80 100 % of control | endpoint: mean survival time, dose: 20.0 mg/kg/injection, schedule: Q04DX003 (ip), vehicle: saline with Tween-80 96 % of control

OCCN1CCSC1=S
inactive: [4] 101 % of control | [5] 97 % of control | [6] 92 % of control

CCCCCCCCCCC(CCCCCCCCCC)c1ccccc1
inactive: endpoint: mean survival time, dose: 100.0 mg/kg/injection, schedule: Q01DX001 (ip), vehicle: saline sonified 108 % of control | endpoint: mean survival time, dose: 200.0 mg/kg/injection, schedule: Q01DX001 (ip), vehicle: saline sonified 104 % of control | endpoint: mean survival time, dose: 400.0 mg/kg/injection, schedule: Q01DX001 (ip), vehicle: saline sonified 114 % of control

COc1ccc2c(c1C)Cc1ccccc1C2=O
inactive: [4] 90 % of control | [5] 89 % of control | [6] 97 % of control

Cc1cc(NC(=S)SCc2ccc3c(c2)OCO3)ccc1Cl
inactive: endpoint: median survival time, dose: 12.5 mg/kg/injection, schedule: Q01DX009 (ip), vehicle: Klucel (hydroxypropylcellulose) (HPC) 108 % of control | endpoint: median survival time, dose: 25.0 mg/kg/injection, schedule: Q01DX009 (ip), vehicle: Klucel (hydroxypropylcellulose) (HPC) 100 % of control and 106 % of control and 110 % of control | endpoint: median survival time, dose: 50.0 mg/kg/injection, schedule: Q01DX009 (ip), vehicle: Klucel (hydroxypropylcellulose) (HPC) 112 % of control and 113 % of control and 106 % of control | endpoint: median survival time, dose: 100.0 mg/kg/injection, schedule: Q01DX009 (ip), vehicle: Klucel (hydroxypropylcellulose) (HPC) 114 % of control | endpoint: median survival time, dose: 200.0 mg/kg/injection, schedule: Q01DX009 (ip), vehicle: Klucel (hydroxypropylcellulose) (HPC) 120 % of control

CC1=CCC(O)(C(C)C)CC1 (configuration not stated)
inactive: [3] 96 % of control | endpoint: mean survival time, dose: 200.0 mg/kg/injection, schedule: Q04DX003 (ip), vehicle: saline 98 % of control | endpoint: mean survival time, dose: 400.0 mg/kg/injection, schedule: Q04DX003 (ip), vehicle: saline 102 % of control

Cc1nc(C#N)c(N)nc1Cl
inactive: endpoint: mean survival time, dose: 100.0 mg/kg/injection, schedule: Q04DX002 (ip), vehicle: Klucel (hydroxypropylcellulose) (HPC) 109 % of control | endpoint: mean survival time, dose: 200.0 mg/kg/injection, schedule: Q04DX002 (ip), vehicle: Klucel (hydroxypropylcellulose) (HPC) 91 % of control | endpoint: mean survival time, dose: 400.0 mg/kg/injection, schedule: Q04DX002 (ip), vehicle: Klucel (hydroxypropylcellulose) (HPC) 109 % of control

C=C1C(=O)OC2CC1C(OC(=O)/C=C/c1ccccc1)C/C(C)=C/CC/C(C)=C/CCC2(C)O (configuration not stated)
inactive: endpoint: mean survival time, dose: 12.5 mg/kg/injection, schedule: Q01DX009 (ip), vehicle: Klucel (hydroxypropylcellulose) (HPC) 96 % of control | endpoint: mean survival time, dose: 25.0 mg/kg/injection, schedule: Q01DX009 (ip), vehicle: Klucel (hydroxypropylcellulose) (HPC) 98 % of control | endpoint: mean survival time, dose: 50.0 mg/kg/injection, schedule: Q01DX009 (ip), vehicle: Klucel (hydroxypropylcellulose) (HPC) 98 % of control | endpoint: mean survival time, dose: 100.0 mg/kg/injection, schedule: Q01DX009 (ip), vehicle: Klucel (hydroxypropylcellulose) (HPC) 102 % of control

O=C1CCc2cccc(O)c21
inactive: [7] 98 % of control | [4] 101 % of control | [8] 93 % of control | [5] 97 % of control | endpoint: mean survival time, dose: 400.0 mg/kg/injection, schedule: Q01DX009 (ip), vehicle: saline with Tween-80 95 % of control | [6] 108 % of control

CCCCCCCNC(=O)Nc1ccc(Cl)c(Cl)c1
inactive: endpoint: mean survival time, dose: 100.0 mg/kg/injection, schedule: Q01DX001 (ip), vehicle: saline with Tween-80 103 % of control | endpoint: mean survival time, dose: 200.0 mg/kg/injection, schedule: Q01DX001 (ip), vehicle: saline with Tween-80 100 % of control | endpoint: mean survival time, dose: 400.0 mg/kg/injection, schedule: Q01DX001 (ip), vehicle: saline with Tween-80 103 % of control

CC(=O)OC1COC(n2cnc3c(N)ncnc32)C(OC(C)=O)C1OC(C)=O (configuration not stated)
inactive: endpoint: mean survival time, dose: 100.0 mg/kg/injection, schedule: Q01DX001 (ip), vehicle: saline 108 % of control | endpoint: mean survival time, dose: 200.0 mg/kg/injection, schedule: Q01DX001 (ip), vehicle: saline 101 % of control | endpoint: mean survival time, dose: 400.0 mg/kg/injection, schedule: Q01DX001 (ip), vehicle: saline 90 % of control

CC(=O)Nc1cccc(N)c1
inactive: [3] 102 % of control

Cc1noc(N)c1C
inactive: [2] 92 % of control | [7] 95 % of control | [8] 92 % of control

CC(=O)Nc1ccc(Br)c(NC(C)=O)n1
inactive: [4] 95 % of control | [5] 98 % of control | [6] 104 % of control

NC(=O)c1cc2c(N)[nH]nc2nc1N
inactive: [9] 97 % of control | endpoint: mean survival time, dose: 6.25 mg/kg/injection, schedule: Q04DX003 (ip), vehicle: saline with Tween-80 94 % of control | endpoint: mean survival time, dose: 12.5 mg/kg/injection, schedule: Q01DX009 (ip), vehicle: saline with Tween-80 103 % of control | endpoint: mean survival time, dose: 12.5 mg/kg/injection, schedule: Q04DX003 (ip), vehicle: saline with Tween-80 97 % of control | [1] 92 % of control | endpoint: mean survival time, dose: 25.0 mg/kg/injection, schedule: Q04DX003 (ip), vehicle: saline with Tween-80 92 % of control

COC(=O)Nc1ccccc1
inactive: endpoint: mean survival time, dose: 100.0 mg/kg/injection, schedule: Q04DX003 (ip), vehicle: saline + alcohol 101 % of control | endpoint: mean survival time, dose: 200.0 mg/kg/injection, schedule: Q04DX003 (ip), vehicle: saline + alcohol 98 % of control | endpoint: mean survival time, dose: 400.0 mg/kg/injection, schedule: Q04DX003 (ip), vehicle: saline + alcohol 98 % of control

CN/N=C/c1ccc(O)c(OC)c1
inactive: [7] 91 % of control | [8] 87 % of control

CN(C)CCN(Cc1ccc(Cl)cc1)c1ccccn1
inactive: endpoint: mean survival time, dose: 3.13 mg/kg/injection, schedule: Q01DX009 (ip), vehicle: saline with Tween-80 95 % of control | [9] 109 % of control

O=[N+]([O-])c1ccc2ncccc2c1
inactive: endpoint: mean survival time, dose: 25.0 mg/kg/injection, schedule: Q01DX009 (ip), vehicle: other 101 % of control | endpoint: mean survival time, dose: 50.0 mg/kg/injection, schedule: Q01DX009 (ip), vehicle: other 105 % of control | endpoint: mean survival time, dose: 100.0 mg/kg/injection, schedule: Q01DX009 (ip), vehicle: other 104 % of control

CCCCCCCCCCCCn1cnc2c(Cl)ncnc21
inactive: endpoint: mean survival time, dose: 12.5 mg/kg/injection, schedule: Q01DX005 (ip), vehicle: other 102 % of control | endpoint: mean survival time, dose: 25.0 mg/kg/injection, schedule: Q01DX005 (ip), vehicle: other 96 % of control | endpoint: mean survival time, dose: 50.0 mg/kg/injection, schedule: Q01DX005 (ip), vehicle: other 100 % of control | endpoint: mean survival time, dose: 100.0 mg/kg/injection, schedule: Q01DX005 (ip), vehicle: other 94 % of control | endpoint: mean survival time, dose: 200.0 mg/kg/injection, schedule: Q01DX005 (ip), vehicle: other 100 % of control
